Reference: patent US7468391B2, “Methods for treating retinoid responsive disorders using selective inhibitors of CYP26A and CYP26B” (Allergan, Inc., priority 2003, dated 2008)
pIC50, pKd: −log10 of the molar value.

Columns and labels:
CYP26A (P450RAI-1) = target: T1, CYP26A (P450RAI-1) (Homo sapiens, UniProt O43174); assay: Cell-based inhibition of RA metabolism in CYP26A stably transfected HeLa cells; settings: stably transfected HeLa cells, [3H]-RA, 3 hours at 37° C.; read-out: P450RAI-1 Whole cell IC50
T1 construct: expressed in transfected cells; host or cells: HeLa
T1 sequence (O43174 1-497): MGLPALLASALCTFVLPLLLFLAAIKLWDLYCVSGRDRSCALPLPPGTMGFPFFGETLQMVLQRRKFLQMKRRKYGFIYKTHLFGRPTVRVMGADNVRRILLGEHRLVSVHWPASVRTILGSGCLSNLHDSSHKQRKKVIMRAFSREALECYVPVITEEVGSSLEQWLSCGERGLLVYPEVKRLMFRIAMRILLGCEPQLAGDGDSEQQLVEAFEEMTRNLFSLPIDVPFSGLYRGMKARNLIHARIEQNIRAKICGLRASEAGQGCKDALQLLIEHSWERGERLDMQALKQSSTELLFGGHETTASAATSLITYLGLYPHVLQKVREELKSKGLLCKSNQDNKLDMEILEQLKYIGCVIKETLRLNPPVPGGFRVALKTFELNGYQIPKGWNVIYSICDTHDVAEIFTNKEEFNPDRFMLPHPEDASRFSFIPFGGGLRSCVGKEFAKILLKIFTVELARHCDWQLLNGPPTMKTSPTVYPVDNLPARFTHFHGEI
Experimental: (§1) In brief, CYP26A or CYP26B can be stably transfected into HeLa cells. Exponentially growing cells are harvested by incubating in trypsin. Cells are then washed and plated in a 48-well plate at 5×10^5 cells in 0.2 ml MEM medium containing 10% FBS and 0.05 μCi [^3H]-RA in the presence or absence of increasing concentrations of the test compounds. The compounds are diluted in 100% DMSO and then added in triplicate wells at either 10, 1 or 0.1 μM final concentration. As a positive control for RA metabolism inhibition, cells are also incubated with ketoconazole at 100, 10 and 1 μM. Cells are incubated for 3 hours at 37 degrees C. The retinoids are then extracted using the procedure of Bligh et al., Canadian Journal of Biochemistry 37: 911-917 (1959), modified by using methylenechloride instead of chloroform. This publication by Bligh et al., is specifically incorporated herein by reference. The water soluble radioactivity is quantified using a β scintillation counter, and IC50 values are determined.
(§2) CYP26A and CYP26B stably transfected HeLa cells were maintained in 100 mm tissue culture dishes in MEM medium containing 10% FBS and 100 μg/ml hygromycin.
(§3) Exponentially growing cells were harvested by incubating in trypsin. Cells were then washed with 1×PBS and plated in a 48-well plate at 5×10^5 cells in 0.2 ml MEM medium containing 10% FBS and 0.05 μCi [^3H]-RA in the presence or absence of increasing concentrations of the test compounds. The compounds were diluted in 100% DMSO and then added to triplicate wells at final concentrations of 10, 1 or 0.1 μM. As a positive control for RA metabolism inhibition, cells were also incubated with ketoconazole at 100, 10 and 1 μM. Cells were incubated for 3 hours at 37° C. The retinoids were then extracted using a modified Bligh and Dyer procedure (Bligh and Dyer, supra (1959)), in which methylene-chloride, as opposed to chloroform, was used, and the aqueous soluble radioactivity quantified using a β-scintillation counter. ID50 values represent the concentration of inhibitor required to inhibit RA metabolism by 50 percent and were derived manually from log-transformed data.

CYP26B (P450RAI-2) = target: T2, CYP26B (P450RAI-2) (Homo sapiens, UniProt Q9NR63); assay: Cell-based inhibition of RA metabolism in CYP26B stably transfected HeLa cells; settings: stably transfected HeLa cells, [3H]-RA, 3 hours at 37° C.; read-out: P450RAI-2 Whole cell IC50
T2 construct: expressed in transfected cells; host or cells: HeLa
T2 sequence (Q9NR63 1-512): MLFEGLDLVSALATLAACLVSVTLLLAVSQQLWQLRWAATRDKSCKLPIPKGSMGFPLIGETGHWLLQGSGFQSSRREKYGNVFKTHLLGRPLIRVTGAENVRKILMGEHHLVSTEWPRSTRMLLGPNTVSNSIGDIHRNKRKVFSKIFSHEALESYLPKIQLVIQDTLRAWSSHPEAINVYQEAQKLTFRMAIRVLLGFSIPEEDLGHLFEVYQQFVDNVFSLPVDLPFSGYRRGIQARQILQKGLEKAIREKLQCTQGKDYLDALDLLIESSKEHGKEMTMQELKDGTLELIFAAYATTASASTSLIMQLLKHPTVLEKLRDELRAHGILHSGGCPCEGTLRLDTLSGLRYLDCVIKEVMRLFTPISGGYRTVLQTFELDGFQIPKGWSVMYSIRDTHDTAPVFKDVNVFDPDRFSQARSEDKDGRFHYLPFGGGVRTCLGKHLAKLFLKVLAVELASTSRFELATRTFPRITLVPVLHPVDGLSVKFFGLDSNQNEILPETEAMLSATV
Experimental: as §1, §2, §3

RAR β = target: T3, RAR β (Homo sapiens, UniProt P10826); assay: RAR β Kd; type: binding; settings: last item of cell EC50/(EFFICACY)/Kd
T3 sequence (P10826 1-455): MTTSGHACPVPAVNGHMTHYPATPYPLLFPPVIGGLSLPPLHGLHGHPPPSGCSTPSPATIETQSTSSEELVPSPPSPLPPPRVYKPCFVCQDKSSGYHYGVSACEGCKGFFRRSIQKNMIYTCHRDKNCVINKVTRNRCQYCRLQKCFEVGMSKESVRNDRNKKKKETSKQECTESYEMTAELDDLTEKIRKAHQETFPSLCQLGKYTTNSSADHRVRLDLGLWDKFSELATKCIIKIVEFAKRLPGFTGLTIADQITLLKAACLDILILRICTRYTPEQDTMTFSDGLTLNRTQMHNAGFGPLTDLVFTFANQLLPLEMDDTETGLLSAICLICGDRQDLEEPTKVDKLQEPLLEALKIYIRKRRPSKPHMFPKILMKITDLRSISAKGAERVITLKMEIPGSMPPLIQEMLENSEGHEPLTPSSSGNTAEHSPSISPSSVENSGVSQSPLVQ

RAR α = target: T4, RAR α (Homo sapiens, UniProt P10276); assay: RAR α Kd; type: binding; settings: last item of cell EC50/(EFFICACY)/Kd
T4 sequence (P10276 1-462): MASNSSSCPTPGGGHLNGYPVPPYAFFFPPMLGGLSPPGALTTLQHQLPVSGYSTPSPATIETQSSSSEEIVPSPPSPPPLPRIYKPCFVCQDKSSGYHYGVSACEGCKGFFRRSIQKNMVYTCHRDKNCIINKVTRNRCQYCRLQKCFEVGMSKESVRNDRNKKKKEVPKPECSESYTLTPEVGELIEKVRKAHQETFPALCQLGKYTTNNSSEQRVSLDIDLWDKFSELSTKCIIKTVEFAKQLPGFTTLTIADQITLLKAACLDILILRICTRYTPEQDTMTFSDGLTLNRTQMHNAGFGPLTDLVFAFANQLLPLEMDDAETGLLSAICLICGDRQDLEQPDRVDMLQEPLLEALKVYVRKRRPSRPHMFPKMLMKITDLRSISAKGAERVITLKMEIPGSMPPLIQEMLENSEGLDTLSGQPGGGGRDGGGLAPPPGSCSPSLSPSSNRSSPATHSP

RAR γ = target: T5, RAR γ (Homo sapiens, UniProt P13631); assay: RAR γ Kd; type: binding; settings: last item of cell EC50/(EFFICACY)/Kd
T5 sequence (P13631 1-454): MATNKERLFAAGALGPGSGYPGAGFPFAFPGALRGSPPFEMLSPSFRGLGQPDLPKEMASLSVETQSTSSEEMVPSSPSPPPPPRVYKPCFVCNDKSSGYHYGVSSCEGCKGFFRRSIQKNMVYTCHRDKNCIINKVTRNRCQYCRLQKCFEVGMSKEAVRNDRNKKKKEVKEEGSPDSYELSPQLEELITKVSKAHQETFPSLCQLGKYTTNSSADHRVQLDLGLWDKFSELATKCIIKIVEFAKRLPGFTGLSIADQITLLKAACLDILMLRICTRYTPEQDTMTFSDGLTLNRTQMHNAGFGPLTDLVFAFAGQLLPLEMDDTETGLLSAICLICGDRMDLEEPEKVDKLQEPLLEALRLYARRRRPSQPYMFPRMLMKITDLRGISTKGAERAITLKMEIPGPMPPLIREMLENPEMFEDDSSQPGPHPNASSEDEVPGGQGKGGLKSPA

Structure (SMILES)	pIC50 (CYP26A (P450RAI-1))	pIC50 (CYP26B (P450RAI-2))	pKd (RAR β)	pKd (RAR α)	pKd (RAR γ)
CC(C)N(Cc1cc(C(=O)Oc2ccc(CC(=O)O)cc2)cc2c1OC(C)(C)CC2(C)C)C1CC1 [Compound 17, 8-[(Cyclopropyl-isopropyl-amino)-methyl]-2,2,4,4-tetramethyl-chroman-6-carboxylic acid 4-carboxymethyl-phenyl ester]	5.60	< 5.00	–	–	–
CC(C)(C)OC(=O)c1cc(C#Cc2ccc(CC(=O)O)cc2)cc2c1OC(C)(C)CC2(C)C [Compound 20, 6-(4-Carboxymethyl-phenylethynyl)-2,2,4,4-tetramethyl-chroman-8-carboxylic acid tert-butyl ester]	5.54	< 5.00	–	–	–
C#Cc1cc(C#Cc2ccc(CC(=O)OCOC(C)=O)c(F)c2)cc(C(=O)OC(C)C)c1 [Compound 62, 3-(4-Acetoxymethoxycarbonylmethyl-3-fluoro-phenylethynyl)-5-ethynyl-benzoic acid isopropyl ester]	6.40	5.21	< 5.00	< 5.00	< 5.00
CC(C)OC(=O)c1ccc(C#Cc2ccc(C(C)C(=O)O)cc2)cc1CN(C)C1CC1 (centres unmarked) [Compound 40, 4-[4-(1-Carboxy-ethyl)-phenylethynyl]-2-[(cyclopropyl-methyl-amino)-methyl]-benzoic acid isopropyl ester]	5.89	< 5.00	< 5.00	< 5.00	< 5.00
Cc1cc2c(cc1C#Cc1ccc(C(C)(C)C(=O)O)cc1)C(C)(C)CCC2N(C)C1CC1 (centres unmarked) [Compound 53, 2-{4-[5-(Cyclopropyl-methyl-amino)-3,8,8-trimethyl-5,6,7,8-tetrahydro-naphthalen-2-ylethynyl]-phenyl}-2-methyl-propionic acid]	6.30	5.30	5.41	< 5.00	< 5.00
CC(C)(C)COC(=O)c1cc(C#Cc2ccc(CC(=O)O)cc2)cc2c1OC(C)(C)CC2(C)C [Compound 19, 6-(4-Carboxymethyl-phenylethynyl)-2,2,4,4-tetramethyl-chroman-8-carboxylic acid 2,2-dimethylpropyl ester]	5.15	< 5.00	–	–	–

Further molecules by rising pIC50 (CYP26A (P450RAI-1)), results first:

pIC50 (CYP26A (P450RAI-1))	pIC50 (CYP26B (P450RAI-2))	pKd (RAR β)	pKd (RAR α)	pKd (RAR γ)	Structure (SMILES)
6.40	< 5.00	–	–	–	CC(C)OC(=O)c1cc(C#Cc2ccc(CC(=O)O)cc2)cc2c1OC(C)(C)CC2(C)C [Compound 18, 6-(4-Carboxymethyl-phenylethynyl)-2,2,4,4-tetramethyl-chroman-8-carboxylic acid isopropyl ester]
6.70	< 5.00	5.29	5.74	< 5.00	CCc1cc(C#Cc2ccc(C(C)(C)C(=O)O)cc2)cc2c1C(N(C)C1CC1)CCC2(C)C (centres unmarked) [Compound 54, 2-{4-[5-(Cyclopropyl-methyl-amino)-4-ethyl-8,8-dimethyl-5,6,7,8-tetrahydro-naphthalen-2-ylethynyl]-phenyl}-2-methyl-propionic acid]
7.00	< 5.00	< 5.00	< 5.00	< 5.00	CN(C1CC1)C1CCC(C)(C)c2cc(C#Cc3ccc(C(C)(C)C(=O)O)cc3)cc(C3CC3)c21 (centres unmarked) [Compound 50, 2-{4-[4-Cyclopropyl-5-(cyclopropyl-methyl-amino)-8,8-dimethyl-5,6,7,8-tetrahydro-naphthalen-2-ylethynyl]-phenyl}-2-methyl-propionic acid]
7.22	5.40	< 5.00	5.47	< 5.00	CN(Cc1cc(C#Cc2ccc(CC(=O)O)cc2)cc2c1OC(C)(C)CC2(C)C)C1CC1 [Compound 6, (4-{8-[(Cyclopropyl-methyl-amino)-methyl]-2,2,4,4-tetramethyl-chroman-6-ylethynyl}phenyl)-acetic acid]
7.30	–	< 5.00	5.28	< 5.00	CC(C(=O)O)c1ccc(C#Cc2cc(C3CC3)c3c(c2)C(C)(C)CCC3N(C)C2CC2)cc1 (centres unmarked) [Compound 49, 2-{4-[4-Cyclopropyl-5-(cyclopropyl-methyl-amino)-8,8-dimethyl-5,6,7,8-tetrahydro-naphthalen-2-ylethynyl]-phenyl}-propionic acid]
7.55	< 5.00	5.89	6.93	< 5.00	COc1cc(C#Cc2ccc(C(C)C(=O)O)cc2)cc2c1C(N(C)C1CC1)CCC2(C)C (centres unmarked) [Compound 27, 2-{4-[5-(Cyclopropyl-methyl-amino)-4-methoxy-8,8-dimethyl-5,6,7,8-tetrahydro-naphthalen-2-ylethynyl]-phenyl}-propionic acid]
